Blank lines part the entries; values can stand above or below the compound they belong to. The source made the active and inactive calls. The rule behind the calls is not given here.
How the values were obtained:
JIMT-1 [1] = assay: Induction of apoptosis in human JIMT-1 cells at high concentration assessed as change in cleaved PARP levels and measured by Western blot analysis; format: functional, cell-based; details: dose 100-5000 nM
JIMT-1 [2] = assay: Induction of apoptosis in human JIMT-1 cells at high concentration assessed as change in cleaved caspase-3 levels and measured by Western blot analysis; format: functional, cell-based; details: dose 100-5000 nM
JIMT-1 [3] = assay: Induction of mitotic arrest in human JIMT-1 cells at high concentration assessed as change in p-histone H3 levels and measured by Western blot analysis; format: functional, cell-based; details: dose 100-5000 nM
JIMT-1 [4] = assay: Induction of DNA damage in human JIMT-1 cells at high concentration assessed as change in p-H2AX levels and measured by Western blot analysis; format: functional, cell-based; details: dose 100-5000 nM
MDA-MB-157 = assay: Antiproliferative activity against human MDA-MB-157 cells after 72 hrs by Cell Titer Glo assay; format: functional, cell-based; details: MDA-MB-157, 72 h
BT-474 = assay: Antiproliferative activity against T-DM1-resistant human BT-474 cells after 72 hrs by Cell Titer Glo assay; format: functional, cell-based; details: BT-474, 72 h
JIMT-1 [5] = assay: Antiproliferative activity against human JIMT-1 cells after 72 hrs by Cell Titer Glo assay; format: functional, cell-based; details: JIMT-1, 72 h
MCF-12A = assay: Antiproliferative activity against human MCF-12A cells after 72 hrs by Cell Titer Glo assay; format: functional, cell-based
MDA-MB-436 = assay: Antiproliferative activity against human MDA-MB-436 cells after 72 hrs by Cell Titer Glo assay; format: functional, cell-based; details: MDA-MB-436, 72 h
[6] = Toxicity in human JIMT-1 cells xenografted female nude mouse assessed as effect on body weight at 2 mg/kg, po administered for every two days for 30 days; format: organism-based; details: in vivo, 720 h, time 30 day
JIMT-1 [7] = assay: Antitumor activity against human JIMT-1 cells xenografted female nude mouse assessed as reduction in tumor growth at 2 mg/kg, po administered for every two days for 30 days; format: functional, organism-based; details: time 30.0 day
JIMT-1 [8] = assay: Induction of apoptosis in human JIMT-1 cells assessed as change in cleaved PARP levels and measured by Western blot analysis; format: functional, cell-based; details: dose 100-5000 nM
[9] = Plasma protein binding in human assessed as unbound fraction; format: ADME, cell-free
JIMT-1 [10] = assay: Induction of mitotic arrest in human JIMT-1 cells assessed as change in p-histone H3 levels and measured by Western blot analysis; format: functional, cell-based; details: dose 100-5000 nM
[11] = Lipophilicity, log D of compound at pH 7.4 in octanol/phosphate buffer; format: physicochemical
[12] = Intrinsic clearance in human liver microsomes; format: ADME, Microsome; details: read-out: CLH
JIMT-1 [13] = assay: Antitumor activity against human JIMT-1 cells xenografted female nude mouse assessed as reduction in tumor weight at 25 mg/kg, po administered for every two days for 23 days; format: functional, organism-based; details: time 23.0 day
JIMT-1 [14] = assay: Antitumor activity against human JIMT-1 cells xenografted female nude mouse assessed as reduction in tumor growth at 2 mg/kg, iv administered for every two days for 30 days; format: functional, organism-based; details: time 30.0 day
[15] = Toxicity in human JIMT-1 cells xenografted female nude mouse assessed as effect on body weight at 25 mg/kg, po administered for every two days for 23 days; format: organism-based; details: in vivo, 552 h, time 23 day
[16] = Toxicity in human JIMT-1 cells xenografted female nude mouse assessed as effect on body weight at 2 mg/kg, iv administered for every two days for 30 days; format: organism-based; details: in vivo, 720 h, time 30 day
[17] = Apparent permeability of the compound across apical to basolateral side in human Caco-2 cells; format: ADME, cell-based
[18] = Half-life in mouse liver microsomes; format: ADME, Microsome
JIMT-1 [19] = assay: Antitumor activity against human JIMT-1 cells xenografted female nude mouse assessed as reduction in tumor growth at 25 mg/kg, po administered for every two days for 23 days; format: functional, organism-based; details: time 23.0 day
[20] = Toxicity in human JIMT-1 cells xenografted female nude mouse assessed as effect on body weight at 5 mg/kg, po administered for every two days for 30 days; format: organism-based; details: in vivo, 720 h, time 30 day
JIMT-1 [21] = assay: Induction of DNA damage in human JIMT-1 cells assessed as change in p-H2AX levels and measured by Western blot analysis; format: functional, cell-based; details: dose 100-5000 nM
JIMT-1 [22] = assay: Inhibition of TACC3 expressed in human JIMT-1 cells at 1 uM and measured after 6 hrs by cellular thermal shift assay relative to control; format: cell-based
[23] = Intrinsic clearance in mouse liver microsomes; format: ADME, Microsome; details: read-out: CLH
[24] = Kinetic solubility in sodium phosphate buffer at pH 7.4 and at 25 degreeC after 2 hrs; format: physicochemical; details: read-out: Kinetic_solubility
JIMT-1 [25] = assay: Induction of apoptosis in human JIMT-1 cells assessed as change in cleaved caspase-3 levels and measured by Western blot analysis; format: functional, cell-based; details: dose 100-5000 nM
[26] = Half-life in human liver microsomes; format: ADME, Microsome
JIMT-1 [27] = assay: Antitumor activity against human JIMT-1 cells xenografted female nude mouse assessed as reduction in tumor growth at 5 mg/kg, po administered for every two days for 30 days; format: functional, organism-based; details: time 30.0 day
[28] = Apparent permeability of the compound across basolateral to apical side in human Caco-2 cells; format: ADME, cell-based
JIMT-1 [29] = assay: Anticlonogenic activity against human JIMT-1 cells assessed as reduction number of cell colonies at 100 to 1000 nM measured after 12 days by crystal violet reagent based colony formation assay; format: functional; details: dose 100-1000 nM, time 12.0 day
[30] = Plasma protein binding in human; format: ADME, cell-free

IC50 (MDA-MB-157): 1.82 µM | IC50 (BT-474): 0.99 µM | IC50 (MDA-MB-436): 1.3 µM
SMILES: CCN(Cc1ccncc1)Cc1c(O)ccc2c(-c3cc4ccccc4oc3=O)cc(=O)oc12
Activity (JIMT-1 [1]): Active | Activity (JIMT-1 [2]): Active | Activity (JIMT-1 [3]): Active | Activity (JIMT-1 [4]): Active | IC50 (JIMT-1 [5]): 1.15 µM | IC50 (MCF-12A): > 10 µM

IC50 (MDA-MB-157): 1.82 µM | IC50 (BT-474): 3.73 µM | IC50 (MDA-MB-436): 4.14 µM
SMILES: CC(C)CNc1ccnc(NCc2csc(-c3ccccc3)n2)n1
Activity (JIMT-1 [1]): Active | Activity (JIMT-1 [2]): Active | Activity (JIMT-1 [3]): Active | Activity (JIMT-1 [4]): Active | IC50 (JIMT-1 [5]): 1.8 µM | IC50 (MCF-12A): 3.46 µM

PPB [9]: 1.13% | logD [11]: 2.31 | microsomal CLint [12]: 118 µL/min/mg | IC50 (MDA-MB-157): 0.33 µM | Papp A→B [17]: 19.1 ×10⁻⁶ cm/s | half-life [18]: 5 min | IC50 (BT-474): 0.37 µM | microsomal CLint [23]: 329 µL/min/mg | solubility kinetic at 2 h [24]: < 1 µM | half-life [26]: 12 min | IC50 (MDA-MB-436): 0.146 µM | Papp B→A [28]: 24.1 ×10⁻⁶ cm/s | PPB [30]: 98.87%
SMILES: COc1ccc(-c2cc(Nc3ccnc(N4CCOCC4)n3)on2)cc1
Activity [6]: Non-Toxic | Activity (JIMT-1 [7]): Active | Activity (JIMT-1 [8]): Dose-Dependent Effect | Activity (JIMT-1 [10]): Dose-Dependent Effect | Activity (JIMT-1 [13]): Active | Activity (JIMT-1 [14]): Active | Activity [15]: Non-Toxic | Activity [16]: Non-Toxic | Activity (JIMT-1 [19]): Active | Activity [20]: Non-Toxic | Activity (JIMT-1 [21]): Dose-Dependent Effect | Activity (JIMT-1 [22]): Active | IC50 (MCF-12A): > 10 µM | Activity (JIMT-1 [25]): Dose-Dependent Effect | Activity (JIMT-1 [27]): Active | Activity (JIMT-1 [29]): Dose-Dependent Effect
